Experimental data reported in ChEMBL document CHEMBL6115010, “Targeting glioma with heteroaromatic alkaloids: A review of potential therapeutics” (Bioorg Med Chem, 2025).
Converted amounts (≈) assume the structure as drawn.

Legend:
CCF-STTG1 [1] = experiment: Cytotoxicity against human CCF-STTG1 cells assessed as reduction in cell viability incubated for 48 hrs by MTT assay; assay type: functional, cell-based; conditions: CCF-STTG1, 48 h
[2] = Cytotoxicity against human CHG-5 cells assessed as reduction in cell viability incubated for 48 hrs by MTT assay; assay type: functional, cell-based; conditions: CHG-5, 48 h
[3] = Cytotoxicity against human SHG-44 cells assessed as reduction in cell viability incubated for 48 hrs by MTT assay; assay type: functional, cell-based; conditions: SHG-44, 48 h
U-251 [4] = experiment: Cytotoxicity against human U-251MG cells assessed as reduction in cell viability incubated for 48 hrs by MTT assay; assay type: functional, cell-based; conditions: U-251, 48 h
[5] = Cytotoxicity against human GSC-3 cells assessed as reduction in cell viability incubated for 72 hrs by MTS assay; assay type: functional, cell-based; conditions: GSC-3, 72 h
SF-268 [6] = experiment: Antiproliferative activity against human SF-268 cells; assay type: functional, cell-based
[7] = Cytotoxicity against human CHG-5 cells assessed as reduction in cell viability incubated for 24 hrs by MTT assay; assay type: functional, cell-based; conditions: CHG-5, 24 h
[8] = Cytotoxicity against human SHG-44 cells assessed as reduction in cell viability incubated for 24 hrs by MTT assay; assay type: functional, cell-based; conditions: SHG-44, 24 h
U-251 [9] = experiment: Cytotoxicity against human U-251MG cells assessed as reduction in cell viability incubated for 24 hrs by MTT assay; assay type: functional, cell-based; conditions: U-251, 24 h
CCF-STTG1 [10] = experiment: Cytotoxicity against human CCF-STTG1 cells assessed as reduction in cell viability incubated for 24 hrs by MTT assay; assay type: functional, cell-based; conditions: CCF-STTG1, 24 h
[11] = Cytotoxicity against human U373 MG cells assessed as reduction in cell growth incubated for 24 hrs by MTT colorimetric assay; assay type: functional, cell-based, U-373MG ATCC
SW1088 = experiment: Cytotoxicity against human SW1088 cells assessed as reduction in cell growth incubated for 24 hrs by MTT colorimetric assay; assay type: functional, cell-based; conditions: SW1088, 24 h
[12] = Toxicity in ip dosed B6D2F1 mouse assessed as maximum tolerated dose measured after 28 days; assay type: organism-based; conditions: in vivo, time 28 day
H4 = experiment: Antiproliferative activity against human H4 cells assessed as reduction in cell viability incubated for 72 hrs by Prestoblue-reagent based assay; assay type: functional; conditions: H4, 72 h
U-87 MG [13] = experiment: Antiproliferative activity against human U-87 MG cells assessed as reduction in cell viability at 100 uM incubated for 72 hrs by Prestoblue-reagent based assay relative to control; assay type: functional, U-87MG ATCC
GAMG = experiment: Antiproliferative activity against human GAMG cells assessed as reduction in cell viability incubated for 48 hrs by MTS reagent based assay; assay type: functional
CCF-STTG1 [14] = experiment: Cytotoxicity against human CCF-STTG1 cells assessed as reduction in cell growth incubated for 24 hrs by MTT assay; assay type: functional, cell-based; conditions: CCF-STTG1, 24 h
[15] = Cytotoxicity against rat ASK cells assessed as reduction in cell growth by SRB assay; assay type: functional; conditions: read-out: ED50 (the source's name)
[16] = Cytotoxicity against human CHG-5 cells assessed as reduction in cell growth incubated for 48 hrs by MTT assay; assay type: functional, cell-based; conditions: CHG-5, 48 h
SH-SY5Y [17] = experiment: Cytotoxicity against human SH-SY5Y cells assessed as reduction in cell growth incubated for 48 hrs by MTT assay; assay type: functional, cell-based
[18] = Cytotoxicity against human SHG-44 cells assessed as reduction in cell growth incubated for 48 hrs by MTT assay; assay type: functional, cell-based; conditions: SHG-44, 48 h
U-251 [19] = experiment: Cytotoxicity against human U-251MG cells assessed as reduction in cell growth incubated for 48 hrs by MTT assay; assay type: functional, cell-based; conditions: U-251, 48 h
[20] = Cytotoxicity against human U-343MG cells assessed as reduction in cell growth incubated for 48 hrs by MTT assay; assay type: functional, cell-based
[21] = Cytotoxicity against human GL15 cells assessed as reduction in cell growth incubated for 48 hrs by MTT assay; assay type: functional, cell-based; conditions: GL15, 48 h
SH-SY5Y [22] = experiment: Cytotoxicity against human SH-SY5Y cells; assay type: functional, cell-based
[23] = Growth inhibition of human U373 MG cells measured after 72 hrs by MTT assay; assay type: functional, U-373MG ATCC
Hs68 = experiment: Growth inhibition of human Hs68 cells measured after 72 hrs by MTT assay; assay type: functional
U-87 MG [24] = experiment: Growth inhibition of human U-87 MG cells measured after 72 hrs by MTT assay; assay type: functional, U-87MG ATCC
U-87 MG [25] = experiment: Cytotoxicity against human U-87 MG cells by resazurin dye based assay; assay type: functional, cell-based, U-87MG ATCC
[26] = Cytotoxicity against human U87MG.deltaEGFR cells by resazurin dye based assay; assay type: functional, cell-based
SF-268 [27] = experiment: Cytotoxicity against human SF-268 cells assessed as reduction in cell viability incubated for 72 hrs by SRB assay; assay type: functional, cell-based; conditions: SF-268, 72 h
SF-295 = experiment: Cytotoxicity against human SF-295 cells assessed as reduction in cell growth incubated for 96 hrs by MTT assay; assay type: functional, cell-based; conditions: SF-295, 96 h

With CC(=O)O[C@H]1C=C[C@]23c4cc5c(cc4[C@H](OC(C)=O)N(C[C@H]2O)[C@@H]3C1)OCO5 the IC50 (CCF-STTG1 [1]) was 27.1 µM, the IC50 [2] was 30.1 µM and the IC50 [3] was 27.1 µM. It also gave an IC50 (U-251 [4]) of 17.4 µM.
CO[C@H]1C=C[C@]23c4cc5c(cc4[C@H](OC(C)=O)N(C[C@H]2O)[C@@H]3C1)OCO5 showed an IC50 (CCF-STTG1 [1]) of 27.1 µM, an IC50 [2] of 30 µM and an IC50 [3] of 28.3 µM. The IC50 (U-251 [4]) was 15.8 µM.
Work on COc1cc2c(c(Oc3ccc(C=O)cc3)c1OC)-c1c(OC)c(OC)cc3ccnc(c13)C2=O yielded an IC50 [5] of 15.5 µg/mL (≈ 32.8 µM).
Work on COC(=O)N1CCc2cc(O)c(OC)c3c4c(cc1c23)C(=O)C=C(OC)C4=O yielded an IC50 (CCF-STTG1 [1]) of 9.2 µM, an IC50 [2] of 10.8 µM and an IC50 [3] of 10.8 µM. It also gave an IC50 (U-251 [4]) of 11.3 µM.
Molecule C[C@@H]1CC[C@H]2C(C)(C)[C@H](O)CC[C@]2(C)[C@@]12Cc1c(O)cc3c(c1O2)C(=O)NC3 has an IC50 (SF-268 [6]) of 11.2 µM.
In the case of CC(=O)O[C@@H]1C2C3C[C@H]4C5=Nc6ccccc6[C@]51C[C@@H]2[N+]4([O-])[C@@H](C)[C@@H]3C=O (some centres not stated), the IC50 [7] is reported as 12.9 µM, the IC50 [8] is reported as 11.8 µM and the IC50 (U-251 [9]) is reported as 12.3 µM. For the same molecule, the IC50 (CCF-STTG1 [10]) was 12.3 µM.
In the case of O=C1c2cccnc2-c2nccc3c2c1nc1cc(Br)ccc13, the IC50 [11] is reported as 0.6 µM, the IC50 (SW1088) is reported as 0.4 µM and the MTD at 672 h [12] is reported as 20 mg/kg.
CC1=NCCc2c1[nH]c1ccccc21 showed an IC50 (H4) of 33.5 µM and an inhibition at 100 µM (U-87 MG [13]) of 30%.
Work on COC(=O)C1=CO[C@@H](C)[C@@H]2CN3CC[C@]4(C(=O)Nc5ccccc54)[C@@H]3C[C@H]12 yielded an IC50 (GAMG) of 20.1 µM.
With COc1cc2c(c(Oc3ccc(C=O)cc3)c1OC)-c1c(OC)c(OC)c(OC)c3ccnc(c13)C2=O the IC50 [5] was 16.3 µg/mL (≈ 32.5 µM).
With CC(=O)O[C@H]1c2cc3c(cc2[C@]24C=C[C@H](O)C[C@H]2N1C[C@H]4O)OCO3 the IC50 (CCF-STTG1 [1]) was 29.4 µM, the IC50 [2] was 29.4 µM and the IC50 [3] was 28.3 µM. The IC50 (U-251 [4]) was 15.8 µM.
For CC(C)=CC[C@]12C/C=C(/C)Oc3cccc(CO)c3/C(N)=C(/C(=O)C=C1C)C2=O, the IC50 (SF-268 [6]) was 17.9 µM.
COc1cc2c(cc1O)C(=O)O[C@H]1[C@@H]2[C@H]2C(=C[C@@H]1O)CC[N+]2(C)[O-] (some centres not stated) showed an IC50 (CCF-STTG1 [14]) of 83.2 µM.
COc1cc2c(cc1OC)-c1c3c(cc4ccnc(c14)C2=O)OCO3 [DICENTRINONE] gave an EC50 [15] of 10.2 µg/mL (≈ 30.4 µM).
For CO[C@@H]1C=C[C@@]23c4cc5c(cc4CN(CCc4ccc(O)cc4)[C@@H]2CN(C)[C@H]3C1)OCO5, the IC50 [16] was 41.8 µM, the IC50 (SH-SY5Y [17]) was 53.7 µM and the IC50 [18] was 43.7 µM. It also gave an IC50 (U-251 [19]) of 46.6 µM, an IC50 [20] of 43.2 µM and an IC50 [21] of 39.8 µM.
Molecule [O-][N+]12CCc3cc(O)c(O)c(c31)-c1cc3c(cc1C2)OCO3 (single isomer, unassigned; (+)) has an IC50 (U-251 [4]) of 93.7 µM.
Molecule N#Cc1cnc2ccccc2c1O has an IC50 (SH-SY5Y [22]) of 66.8 µM.
In the case of C[C@@H]1CC[C@H]2C(C)(C)[C@H](O)CC[C@]2(C)[C@@]12Cc1c(O)cc3c(c1O2)C(=O)NC3=O, the IC50 (SF-268 [6]) is reported as 43.3 µM.
CO[C@@H]1C=C[C@@]23c4cc5c(cc4C(C)O[C@H]2CN(C)[C@H]3C1)OCO5 (some centres not stated) showed a GI50 [23] of 1 µM, a GI50 (Hs68) of 51 µM and a GI50 (U-87 MG [24]) of 28 µM.
With COc1cc(OC)c2c(c1)C(=O)c1nccc3cc4c(c-2c13)OCO4 [OXODISCOGUATTINE] the EC50 [15] was 2.11 µg/mL (≈ 6.29 µM).
In the case of COc1c2c(cc3[nH]c4ccccc4c(=O)c13)OCO2, the IC50 (U-87 MG [25]) is reported as 89.3 µM and the IC50 [26] is reported as 5.72 µM.
Molecule C/C=C(\C)[C@H](O)[C@H](C)/C=C(C)/C=C/C/C(C)=C/Cc1nc(OC)c(OC)c(O)c1C [PIERICIDIN A] has an IC50 (SF-268 [27]) of 68.1 µM.
Molecule CC[C@]1(O)C[C@H]2CN(CCc3c([nH]c4ccccc34)[C@@](C(=O)OC)(c3cc4c(cc3OC)N(C=O)[C@H]3[C@@](O)(C(=O)OC)[C@H](OC(C)=O)[C@]5(CC)C=CCN6CC[C@]43[C@@H]65)C2)C1 [VINCRISTINE] has an IC50 (GAMG) of 30.4 µM.
Work on CC1=NCCc2c1[nH]c1cc(O)ccc21 [HARMALOL] yielded an IC50 (H4) of 23.7 µM and an inhibition at 100 µM (U-87 MG [13]) of 37%.
For COc1cc2c(cc1OC)[C@H](O)[C@@H]1c3c(cc4c(c3-2)OCO4)CCN1C, the IC50 (SF-295) was 1.41 µg/mL (≈ 3.97 µM).
COc1cc2c(cc1O)[C@H](OC(C)=O)N1C[C@@H](O)[C@]23C=C[C@H](OC)C[C@@H]13 gave an IC50 (CCF-STTG1 [1]) of 29.4 µM, an IC50 [2] of 29.4 µM and an IC50 [3] of 27.1 µM. For the same molecule, the IC50 (U-251 [4]) was 17.4 µM.
C/C=C(\C)[C@H](O)[C@H](C)/C=C(C)/C=C(\C)C/C(C)=C/Cc1nc(OC)c(OC)c(OC)c1C gave an IC50 (SF-268 [27]) of 10 µM.
